For assay [1], the system named is summer wheat (TRZAS; cv. Triso). As to the kind of experiment: Absolute action: reduction of damage by mesosulfuron-methyl on summer wheat, greenhouse post-emergence. It is filed as in vivo. To be noted: for Absolute reduction in herbicide damage (damage without safener minus damage with safener): mesosulfuron-methyl 20 g/ha; for Herbicide damage with compound of the formula (I): then mesosulfuron-methyl 20 g/ha, visual 0-100% scale, 14-21 days after application. On the procedure:
(§1) 2.1 Absolute Action of Selected Compounds of the Invention Using the Example of Reduction of Damage by Mesosulfuron-Methyl on Summer Wheat (TRZAS) The seeds of the crop plants to be treated are laid out in sandy loam in wood fiber or plastic pots (diameter ˜4 cm), covered with soil and grow in a greenhouse under good conditions for germination and growth. The trial plants were treated at the early leaf stage (BBCH10—BBCH12). In the course of this, the inventive compounds of the general formula (I) formulated in the form of wettable powders (WP) were sprayed onto the above-ground parts of the plants as an aqueous suspension with a water application rate corresponding to 800 l/ha with addition of wetting agent (e.g. 0.2% agrotin) in the specified dose. This was followed by the application of the herbicide. For this purpose, mesosulfuron-methyl, formulated in the form of water-dispersible granules (WG), was sprayed onto the above-ground parts of the plants in the form of an aqueous dispersion with a water application rate corresponding to 800 l/ha with addition of wetting agent (e.g. 0.2% agrotin) in a dose of 20 g/ha. The dose of the herbicide was chosen here such that it causes visually apparent damage (min. 30%, max. 75%) compared to untreated crop plants at the evaluation time on a control group of crop plants without safener treatment that were included in the same trial. After application, the plants were cultivated under good growth conditions in a greenhouse. The damage was visually assessed 14-21 days after application. The damage effect was assessed visually on a scale of 0-100% by comparison with untreated control plants, and averaged over 2-3 repeats per treatment. Examples: • 0%=no noticeable effect compared to the untreated plant • 20%=the treated plant population has 20% damage compared to the untreated control population (e.g. growth height, leaf damage, etc.) • 100%=treated plants completely damaged/killed.

Assay [2] concerns summer barley (HORVS; cv. Montoya). As to the kind of experiment: Absolute action: reduction of damage by mesosulfuron-methyl on summer barley, greenhouse post-emergence. It is filed as in vivo. To be noted: for Absolute reduction in damage (difference): mesosulfuron-methyl 20 g/ha, damage without minus with safener; for Herbicide damage with compound of the formula (I) (%): then mesosulfuron-methyl 20 g/ha, visual 0-100% scale, 14-21 days after application. On the procedure: as §1, with “2.2 Absolute Action” for “2.1 Absolute Action”, “on Summer Barley (HORVS) The seeds” for “on Summer Wheat (TRZAS) The seeds”, “treated are aid out in” for “treated are laid out in”, “soil and grown in a” for “soil and grow in a”, “leaf stage (BBCE10-BBCH12). In the” for “leaf stage (BBCH10—BBCH12). In the”, “control population (e.g.: growth height,” for “control population (e.g. growth height,”

The structures appear in SMILES notation.

`O=C(O)COc1nc(-c2ccc(Cl)cc2Cl)n(-c2ccc(F)cc2F)n1` [I.45-38]: the “Absolute reduction in herbicide damage (damage without safener minus damage with safener)” value is listed as 33% in assay [1] (safener 125 g a.i./ha) and 43% in assay [1] (safener 500 g a.i./ha). The “Herbicide damage with compound of the formula (I)” value in assay [1] (safener 125 g a.i./ha) worked out at 30%; in assay [1] (safener 500 g a.i./ha), 20%. The “Absolute reduction in damage (difference)” value in assay [2] (safener 125 g a.i./ha) is 30%; in assay [2] (safener 500 g a.i./ha), 40%. In addition, the “Herbicide damage with compound of the formula (I) (%)” value (“Herbicide damage with compound … (%)” below) in assay [2] (safener 125 g a.i./ha) is reported as 30%; in assay [2] (safener 500 g a.i./ha), 20%.

Take `O=C(O)COc1nc(-c2ccc(Cl)cc2Cl)n(-c2ccc(Cl)cc2F)n1` [I.45-49, {[1-(4-Chloro-2-fluorophenyl)-5-(2,4-dichlorophenyl)-1H-1,2,4-triazol-3-yl]oxy}acetic acid]: the results for the “Absolute reduction in herbicide damage (damage without safener minus damage with safener)” value in assay [1] (safener 125 g a.i./ha) and in assay [1] (safener 500 g a.i./ha) were 20% and 23%, respectively. Besides, the “Herbicide damage with compound of the formula (I)” value in assay [1] (safener 125 g a.i./ha) stood at 43%; in assay [1] (safener 500 g a.i./ha) it was 40%. Moreover, the entries for the “Absolute reduction in damage (difference)” value in assay [2] (safener 125 g a.i./ha) and in assay [2] (safener 500 g a.i./ha) were 20% and 30%, respectively. Further, the entries for the “Herbicide damage with compound … (%)” value in assay [2] (safener 125 g a.i./ha) and in assay [2] (safener 500 g a.i./ha) were 40% and 30%, respectively.

With `COC(=O)COc1nc(-c2ccc(Cl)cc2F)n(-c2ccccc2F)n1` [I.46-2], in assay [1] (safener 125 g a.i./ha), the “Absolute reduction in herbicide damage (damage without safener minus damage with safener)” value is reported as 46% and the “Herbicide damage with compound of the formula (I)” value turned out to be 7%. Also, in assay [2] (safener 125 g a.i./ha), the “Absolute reduction in damage (difference)” value was found to be 23% and the “Herbicide damage with compound … (%)” value was determined as 37%. Further, in assay [2] (safener 500 g a.i./ha), the “Absolute reduction in damage (difference)” value is recorded as 33% and the “Herbicide damage with compound … (%)” value is 27%.

Take `COC(=O)COc1nc(-c2ccc(Cl)cc2F)n(-c2ccc(Cl)cc2Cl)n1` [I.46-32]: in assay [1] (safener 125 g a.i./ha), the “Absolute reduction in herbicide damage (damage without safener minus damage with safener)” value turned out to be 43% and the “Herbicide damage with compound of the formula (I)” value is recorded as 10%. For the same compound, in assay [1] (safener 500 g a.i./ha), the “Absolute reduction in herbicide damage (damage without safener minus damage with safener)” value came to 46% and the “Herbicide damage with compound of the formula (I)” value is reported as 7%. Further, in assay [2] (safener 125 g a.i./ha), the “Absolute reduction in damage (difference)” value worked out at 27% and the “Herbicide damage with compound … (%)” value was 33%. Further, in assay [2] (safener 500 g a.i./ha), the “Absolute reduction in damage (difference)” value came out at 33% and the “Herbicide damage with compound … (%)” value was determined as 27%.

Turning to `COC(=O)COc1nc(-c2ccc(Cl)cc2F)n(-c2ccc(F)cc2F)n1` [I.46-38], in assay [1] (safener 125 g a.i./ha), the “Absolute reduction in herbicide damage (damage without safener minus damage with safener)” value worked out at 33% and the “Herbicide damage with compound of the formula (I)” value is reported as 30%. For the same compound, in assay [2] (safener 125 g a.i./ha), the “Absolute reduction in damage (difference)” value is listed as 40% and the “Herbicide damage with compound … (%)” value amounted to 23%. In assay [2] (safener 500 g a.i./ha), the “Absolute reduction in damage (difference)” value is recorded as 43% and the “Herbicide damage with compound … (%)” value turned out to be 20%.

With `COC(=O)COc1nc(-c2ccc(Cl)cc2F)n(-c2ccc(Cl)cc2F)n1` [I.46-49], in assay [1] (safener 125 g a.i./ha), the “Absolute reduction in herbicide damage (damage without safener minus damage with safener)” value is reported as 43% and the “Herbicide damage with compound of the formula (I)” value was determined as 10%. Moreover, in assay [2] (safener 125 g a.i./ha), the “Absolute reduction in damage (difference)” value was 40% and the “Herbicide damage with compound … (%)” value is 20%. In assay [2] (safener 500 g a.i./ha), the “Absolute reduction in damage (difference)” value was found to be 43% and the “Herbicide damage with compound … (%)” value amounted to 17%.

For `CCOC(=O)COc1nc(-c2ccc(Cl)cc2F)n(-c2ccc(Cl)cc2Cl)n1` [I.47-32], in assay [1] (safener 125 g a.i./ha), the “Absolute reduction in herbicide damage (damage without safener minus damage with safener)” value worked out at 34% and the “Herbicide damage with compound of the formula (I)” value was found to be 23%. Also, in assay [1] (safener 500 g a.i./ha), the “Absolute reduction in herbicide damage (damage without safener minus damage with safener)” value was 44% and the “Herbicide damage with compound of the formula (I)” value is on record as 13%. Further, in assay [2] (safener 500 g a.i./ha), the “Absolute reduction in damage (difference)” value was 47% and the “Herbicide damage with compound … (%)” value is 10%.

On to `CCOC(=O)COc1nc(-c2ccc(Cl)cc2F)n(-c2ccc(F)cc2F)n1` [I.47-38], for which, in assay [1] (safener 125 g a.i./ha), the “Absolute reduction in herbicide damage (damage without safener minus damage with safener)” value is recorded as 27% and the “Herbicide damage with compound of the formula (I)” value stood at 13%. Further, in assay [2] (safener 125 g a.i./ha), the “Absolute reduction in damage (difference)” value is listed as 40% and the “Herbicide damage with compound … (%)” value turned out to be 17%. In addition, in assay [2] (safener 500 g a.i./ha), the “Absolute reduction in damage (difference)” value is given as 47% and the “Herbicide damage with compound … (%)” value amounted to 10%.

`CCOC(=O)COc1nc(-c2ccc(Cl)cc2F)n(-c2ccc(Cl)cc2F)n1` [I.47-49]: in assay [1] (safener 125 g a.i./ha), the “Absolute reduction in herbicide damage (damage without safener minus damage with safener)” value is given as 30% and the “Herbicide damage with compound of the formula (I)” value was 30%. Besides, in assay [2] (safener 125 g a.i./ha), the “Absolute reduction in damage (difference)” value worked out at 50% and the “Herbicide damage with compound … (%)” value is recorded as 10%.

Take `O=C(O)COc1nc(-c2ccc(Cl)cc2F)n(-c2ccccc2F)n1` [I.48-2]: in assay [1] (safener 125 g a.i./ha), the “Absolute reduction in herbicide damage (damage without safener minus damage with safener)” value was found to be 27% and the “Herbicide damage with compound of the formula (I)” value was found to be 3%. Also, in assay [2] (safener 125 g a.i./ha), the “Absolute reduction in damage (difference)” value worked out at 20% and the “Herbicide damage with compound … (%)” value was found to be 27%. In assay [2] (safener 500 g a.i./ha), the “Absolute reduction in damage (difference)” value worked out at 27% and the “Herbicide damage with compound … (%)” value was 20%.

Consider `O=C(O)COc1nc(-c2ccc(Cl)cc2F)n(-c2ccc(Cl)cc2Cl)n1` [I.48-32], for which, in assay [1] (safener 125 g a.i./ha), the “Absolute reduction in herbicide damage (damage without safener minus damage with safener)” value is 30% and the “Herbicide damage with compound of the formula (I)” value is given as 30%. Besides, in assay [1] (safener 500 g a.i./ha), the “Absolute reduction in herbicide damage (damage without safener minus damage with safener)” value was determined as 37% and the “Herbicide damage with compound of the formula (I)” value is 23%. Moreover, in assay [2] (safener 125 g a.i./ha), the “Absolute reduction in damage (difference)” value came out at 40% and the “Herbicide damage with compound … (%)” value turned out to be 20%. Also, in assay [2] (safener 500 g a.i./ha), the “Absolute reduction in damage (difference)” value turned out to be 50% and the “Herbicide damage with compound … (%)” value came out at 10%.

`O=C(O)COc1nc(-c2ccc(Cl)cc2F)n(-c2ccc(Cl)cc2F)n1` [I.48-49]: in assay [1] (safener 125 g a.i./ha), the “Absolute reduction in herbicide damage (damage without safener minus damage with safener)” value came to 37% and the “Herbicide damage with compound of the formula (I)” value is 23%. Further, in assay [1] (safener 500 g a.i./ha), the “Absolute reduction in herbicide damage (damage without safener minus damage with safener)” value is recorded as 40% and the “Herbicide damage with compound of the formula (I)” value is listed as 20%. Besides, in assay [2] (safener 125 g a.i./ha), the “Absolute reduction in damage (difference)” value worked out at 40% and the “Herbicide damage with compound … (%)” value amounted to 20%. Also, in assay [2] (safener 500 g a.i./ha), the “Absolute reduction in damage (difference)” value was 60% and the “Herbicide damage with compound … (%)” value was found to be 0%.

Regarding `CCOC(=O)COc1nc(-c2cc(F)cc(F)c2)n(-c2ccc(F)cc2)n1` [I.53-4], in assay [1] (safener 1000 g/ha), the “Absolute reduction in herbicide damage (damage without safener minus damage with safener)” value was found to be 20% and the “Herbicide damage with compound of the formula (I)” value is given as 23%. Moreover, in assay [2] (safener 250 g a.i./ha), the “Absolute reduction in damage (difference)” value amounted to 27% and the “Herbicide damage with compound … (%)” value is on record as 33%.

As to `CCOC(=O)COc1nc(-c2cc(F)cc(F)c2)n(-c2ccc(F)cc2F)n1` [I.53-38], in assay [1] (safener 1000 g/ha), the “Absolute reduction in herbicide damage (damage without safener minus damage with safener)” value is listed as 20% and the “Herbicide damage with compound of the formula (I)” value is 23%. Besides, in assay [2] (safener 250 g a.i./ha), the “Absolute reduction in damage (difference)” value stood at 30% and the “Herbicide damage with compound … (%)” value worked out at 30%. For the same compound, in assay [2] (safener 1000 g a.i./ha), the “Absolute reduction in damage (difference)” value is 40% and the “Herbicide damage with compound … (%)” value amounted to 20%.

The values above are taken from patent publication US12583826B2, “[(1,5-diphenyl-1H-1,2,4-triazol-3-yl)oxy]acetic acid derivatives and salts thereof, crop protection compositions comprising them, methods for producing them and use thereof as safeners” (Bayer Aktiengesellschaft, priority 2019, dated 2026).
